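Compound exposure: 48 hours, 5 concentrations, 96-well plates. At the GI50, growth is halved. TGI marks complete inhibition of growth.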
Legend:
Test in all cases: NCI-60 cell line screen, 48 h
SK-MEL-2 melanoma = tested on: SK-MEL-2 melanoma
MCF7 breast = tested on: MCF7 breast
NCI-H460 lung = tested on: NCI-H460 lung
SF-539 CNS = tested on: SF-539 CNS
NCI-H522 lung = tested on: NCI-H522 lung
MOLT-4 leukemia = tested on: MOLT-4 leukemia
SNB-75 CNS = tested on: SNB-75 CNS
SF-295 CNS = tested on: SF-295 CNS
EKVX NSCLC = tested on: EKVX NSCLC
U251 CNS = tested on: U251 CNS
NCI-H23 lung = tested on: NCI-H23 lung
SK-OV-3 ovarian = tested on: SK-OV-3 ovarian
M14 melanoma = tested on: M14 melanoma
SR leukemia = tested on: SR leukemia
NCI/ADR-RES ovarian = tested on: NCI/ADR-RES ovarian
OVCAR-5 ovarian = tested on: OVCAR-5 ovarian
RXF 393 renal = tested on: RXF 393 renal
HOP-92 NSCLC = tested on: HOP-92 NSCLC
HCT-116 colon = tested on: HCT-116 colon
TK-10 renal = tested on: TK-10 renal
MALME-3M melanoma = tested on: MALME-3M melanoma
DU-145 prostate = tested on: DU-145 prostate
BT-549 breast = tested on: BT-549 breast
SW-620 colon = tested on: SW-620 colon
LOX IMVI melanoma = tested on: LOX IMVI melanoma
HCT-15 colon = tested on: HCT-15 colon
UACC-62 melanoma = tested on: UACC-62 melanoma
PC-3 prostate = tested on: PC-3 prostate
UO-31 renal = tested on: UO-31 renal

Structure (SMILES): COc1ccc(C(C)=C(c2ccc(OCCN3CCCCCC3)cc2)c2ccc(OCCN3CCCCCC3)cc2)cc1
- GI50 (SK-MEL-2 melanoma): 2950 nM
- TGI (SK-MEL-2 melanoma): 6340 nM
- GI50 (MCF7 breast): 177 nM
- TGI (MCF7 breast): 579 nM
- GI50 (NCI-H460 lung): 635 nM
- TGI (NCI-H460 lung): 2180 nM
- GI50 (SF-539 CNS): 1020 nM
- TGI (SF-539 CNS): 2990 nM
- GI50 (NCI-H522 lung): 2650 nM
- TGI (NCI-H522 lung): 6100 nM
- GI50 (MOLT-4 leukemia): 436 nM
- TGI (MOLT-4 leukemia): 1290 nM
- GI50 (SNB-75 CNS): 2060 nM
- TGI (SNB-75 CNS): 5230 nM
- GI50 (SF-295 CNS): 447 nM
- TGI (SF-295 CNS): 1310 nM
- GI50 (EKVX NSCLC): 2340 nM
- TGI (EKVX NSCLC): 7200 nM
- GI50 (U251 CNS): 524 nM
- TGI (U251 CNS): 1830 nM
- GI50 (NCI-H23 lung): 2670 nM
- TGI (NCI-H23 lung): 9520 nM
- GI50 (SK-OV-3 ovarian): 2550 nM
- TGI (SK-OV-3 ovarian): 5230 nM
- GI50 (M14 melanoma): 270 nM
- TGI (M14 melanoma): 515 nM
- GI50 (SR leukemia): 306 nM
- TGI (SR leukemia): 773 nM
- GI50 (NCI/ADR-RES ovarian): 2070 nM
- TGI (NCI/ADR-RES ovarian): 4550 nM
- GI50 (OVCAR-5 ovarian): 2440 nM
- TGI (OVCAR-5 ovarian): 8260 nM
- GI50 (RXF 393 renal): 646 nM
- TGI (RXF 393 renal): 2560 nM
- GI50 (HOP-92 NSCLC): 843 nM
- TGI (HOP-92 NSCLC): 3890 nM
- GI50 (HCT-116 colon): 369 nM
- TGI (HCT-116 colon): 1110 nM
- GI50 (TK-10 renal): 3120 nM
- TGI (TK-10 renal): 6730 nM
- GI50 (MALME-3M melanoma): 300 nM
- TGI (MALME-3M melanoma): 616 nM
- GI50 (DU-145 prostate): 2280 nM
- TGI (DU-145 prostate): 5730 nM
- GI50 (BT-549 breast): 2030 nM
- TGI (BT-549 breast): 4210 nM
- GI50 (SW-620 colon): 450 nM
- TGI (SW-620 colon): 1480 nM
- GI50 (LOX IMVI melanoma): 177 nM
- TGI (LOX IMVI melanoma): 427 nM
- GI50 (HCT-15 colon): 488 nM
- TGI (HCT-15 colon): 1970 nM
- GI50 (UACC-62 melanoma): 869 nM
- TGI (UACC-62 melanoma): 2050 nM
- GI50 (PC-3 prostate): 1720 nM
- TGI (PC-3 prostate): 4820 nM
- GI50 (UO-31 renal): 1780 nM
- TGI (UO-31 renal): 3970 nM

— PubChem BioAssay (NCI)
